Values joined by “and” are separate entries in the source; they are usually repeats but may differ in a detail not shown here. Identical values can stand only once.
Assay: xn = mol fraction of the nth substance listed
Details: Liquid; for mass density: Bellows volumetry; for viscosity: Falling or rolling sphere viscometry

C=CC [propene] + Cc1ccccc1
Details	mass density, x1 = 0.0787 [kg/m3]	mass density, x1 = 0.3073 [kg/m3]	viscosity, x1 = 0.0787	viscosity, x1 = 0.3073
294.8 K, 16200 kPa	839.2	–	0.656 mPa·s and 0.638 mPa·s	–
294.8 K, 27900 kPa	847.6	–	0.7 mPa·s and 0.696 mPa·s	–
294.8 K, 28000 kPa	847.6	–	0.689 mPa·s	–
294.8 K, 28100 kPa	847.6	–	0.696 mPa·s	–
294.8 K, 28200 kPa	849.8	–	0.694 mPa·s and 0.693 mPa·s	–
294.8 K, 40900 kPa	855.9	–	0.77 mPa·s and 0.772 mPa·s	–
294.8 K, 56200 kPa	864.7	–	0.856 mPa·s	–
294.8 K, 56300 kPa	864.7	–	0.854 mPa·s	–
297.5 K, 3700 kPa	–	753	–	0.356 mPa·s and 0.355 mPa·s
297.5 K, 10800 kPa	–	759	–	0.371 mPa·s
297.5 K, 10900 kPa	–	759	–	0.363 mPa·s
297.5 K, 20700 kPa	–	766.9	–	0.399 mPa·s and 0.4 mPa·s
297.5 K, 21200 kPa	–	767.5	–	0.408 mPa·s and 0.412 mPa·s
297.5 K, 30500 kPa	–	774.9	–	0.439 mPa·s
297.5 K, 30600 kPa	–	774.9	–	0.44 mPa·s
297.5 K, 30700 kPa	–	774.9	–	0.431 mPa·s and 0.433 mPa·s
297.5 K, 48400 kPa	–	787.8	–	0.491 mPa·s
297.5 K, 48500 kPa	–	787.8	–	0.49 mPa·s
297.5 K, 69000 kPa	–	800.9	–	0.555 mPa·s
297.5 K, 69100 kPa	–	800.9	–	0.552 mPa·s
323.1 K, 3300 kPa	–	728.4	–	0.276 mPa·s
323.1 K, 3700 kPa	–	728.4	–	0.277 mPa·s
323.1 K, 10200 kPa	–	736.3	–	0.294 mPa·s
323.1 K, 11000 kPa	–	736.3	–	0.295 mPa·s
323.1 K, 21100 kPa	–	747.5	–	0.319 mPa·s
323.1 K, 21200 kPa	–	747.5	–	0.316 mPa·s
323.1 K, 35000 kPa	–	758.2	–	0.363 mPa·s
323.1 K, 35100 kPa	–	758.2	–	0.36 mPa·s and 0.352 mPa·s
323.1 K, 35200 kPa	–	758.2	–	0.35 mPa·s
323.1 K, 48500 kPa	–	768.2	–	0.389 mPa·s and 0.385 mPa·s
323.1 K, 68900 kPa	–	782.5	–	0.441 mPa·s and 0.442 mPa·s
325.2 K, 7100 kPa	808.6	–	0.423 mPa·s	–
325.2 K, 7400 kPa	808.6	–	0.421 mPa·s	–
325.2 K, 13900 kPa	814.5	–	0.435 mPa·s	–
325.2 K, 14200 kPa	814.2	–	0.44 mPa·s	–
325.2 K, 20600 kPa	819.6	–	0.468 mPa·s and 0.467 mPa·s	–
325.2 K, 26900 kPa	824.5	–	0.493 mPa·s	–
325.2 K, 27100 kPa	824.5	–	0.495 mPa·s	–
325.2 K, 40500 kPa	833.6	–	0.543 mPa·s and 0.534 mPa·s	–
325.2 K, 40700 kPa	833.6	–	0.542 mPa·s and 0.533 mPa·s	–
325.2 K, 51500 kPa	840.7	–	0.58 mPa·s	–
325.2 K, 51600 kPa	840.7	–	0.584 mPa·s and 0.589 mPa·s	–
325.2 K, 51900 kPa	840.7	–	0.583 mPa·s	–
325.2 K, 67700 kPa	850.9	–	0.644 mPa·s	–
325.2 K, 67900 kPa	850.9	–	0.645 mPa·s	–
325.2 K, 68000 kPa	850.9	–	0.645 mPa·s and 0.661 mPa·s	–
373.4 K, 3400 kPa	–	677.6	–	0.179 mPa·s
373.4 K, 3500 kPa	–	677.6	–	0.177 mPa·s
373.4 K, 6700 kPa	–	682.7	–	0.185 mPa·s
373.4 K, 6800 kPa	–	682.7	–	0.186 mPa·s
373.4 K, 17500 kPa	–	697.6	–	0.206 mPa·s and 0.207 mPa·s
373.4 K, 27500 kPa	–	710.3	–	0.225 mPa·s
373.4 K, 27700 kPa	–	710.2	–	0.224 mPa·s
373.4 K, 39100 kPa	–	722.7	–	0.244 mPa·s
373.4 K, 39200 kPa	–	722.7	–	0.243 mPa·s
373.4 K, 39300 kPa	–	722.7	–	0.246 mPa·s
373.4 K, 39600 kPa	–	722.7	–	0.247 mPa·s
373.4 K, 54700 kPa	–	737.2	–	0.27 mPa·s
373.4 K, 54800 kPa	–	737.2	–	0.271 mPa·s
373.4 K, 69000 kPa	–	748.6	–	0.297 mPa·s
373.4 K, 69100 kPa	–	748.6	–	0.296 mPa·s
376.9 K, 2400 kPa	759.5	–	0.252 mPa·s	–

Reference: the NIST ThermoML archive (doi:10.1016/j.fluid.2019.06.022)
